Values of other authors, collected in PMC3671928 (Analytical chemistry, 2013).

How the values were obtained:
U937 cells = settings: prolonged exposure to 1 μM
aminopeptidase N = settings: read-out: IC50, aminopeptidase N
[1] = molecular target: leucine aminopeptidase (LAP); settings: read-out: IC50, leucine aminopeptidase (LAP)
peptidase activity = settings: 1 μM applied to cells for 24 h
[2] = molecular target: puromycin-sensitive aminopeptidase (PuSA); settings: read-out: IC50, puromycin-sensitive aminopeptidase (PuSA)

CC(C)C[C@@H](C(=O)N[C@H](C(=O)OC1CCCC1)c1ccccc1)[C@H](O)C(=O)NO [Tosedostat]
effect on proliferation of U937 cells (U937 cells): substantially inhibits proliferation
IC50 (aminopeptidase N): 220 nM
IC50 [1]: 100 nM
inhibition of fragmentation of a fluorogenic substrate (peptidase activity): approximately 50%
IC50 [2]: 150 nM
